Read-outs that look alike come from different tables or passages of the source.
Legend:
ARPE-19 cells [1] = experiment: Fibronectin deposition assay in TGFβ-stimulated ARPE-19 cells; assay type: cell-based, human; conditions: for IC50: ARPE-19 cells stimulated with TGFβ, incubated 96 hours
Procedure: ARPE-19 cells were plated into 96-well plates (10,000 cells/well) and allowed to attach. Media was removed and replaced with the media specified in the “Cell Culture” section above, without FBS. Cells were treated for four days±TGFβ (10 ng/mL) and 10 μM loxapine. Cells were fixed with 10% neutral buffered formalin (Sigma-Aldrich) for 15 minutes. Cells were permeabilized with 0.25% Triton X-100 (Sigma-Aldrich) and blocked with 1% BSA for 1 hour. Cells were incubated with mouse monoclonal IgG3 primary antibodies against fibronectin (Santa Cruz Biotechnology), which were diluted 1:400 in 0.25% Triton X-100 (Sigma-Aldrich) with 1% BSA. Cells were incubated with primary antibodies either in 4° C. overnight or at room temperature for 2 hours. Cells were washed with PBS (Gibco), then incubated for 1 hour with Alexa Fluor® 488 donkey anti-mouse IgG (H+L) secondary antibodies (Life Technologies) and DAPI (Thermo Fisher Scientific), which were each diluted 1:1000 in 0.25% Triton X-100 (Sigma-Aldrich) with 1% BSA. Cells were washed again with PBS (Gibco). Immunofluorescence was measured using a Cytation 5 imaging reader (BioTek).
The compounds of this Example were tested using the fibronectin deposition assay described in Example 1. In brief, ARPE-19 cells were stimulated with TGFβ+/−the indicated concentration of each compound. Incubated 96 hours Fixed and immunostained for fibronectin.
In brief, ARPE-19 cells were stimulated with TGFβ+/−the indicated concentration of each compound. Incubated 96 hours, fixed and immunostained for fibronectin.

[2] = system: profibrotic gene expression (COL1A1, ACTA2, FN1) in ARPE-19 cells; experiment: Profibrotic gene expression by qPCR in ARPE-19 cells treated ±TGFβ; assay type: cell-based, human; conditions: ARPE-19 + TGFβ (10 ng/mL), 24 hours; antagonists 10 μM, pramipexole 1 μM; compared to TGFβ only
Procedure: ARPE-19 cells were plated into 12 well plates (100,000 cells/well) and allowed to attach. Media was removed and replaced with the media specified in the “Cell Culture” section above, minus FBS. Cells were treated for 24 hours±TGFβ (10 ng/mL), 1 μM pramipexole, and 10 μM loxapine. RNA was isolated using the RNeasy Plus Mini Kit (Qiagen) and the manufacturer's protocol. Isolated RNA was converted to cDNA using the SuperScript VILO cDNA Synthesis Kit (Invitrogen) and the PTC-200 Peltier Thermal Cycler (MJ Research). Quantitative PCR (qPCR) was performed using FastStart Essential DNA Green Master (Roche) and LightCycler 96 (Roche).
After identifying the preferential expression of DRD2 in ARPE-19 cells, the regulatory effects of these receptors on fibrotic activation were elucidated. As to D2 dopamine receptor (FIG. 2A-B), RNA isolation and qPCR were used to measure the transcript levels of fibrotic markers in ARPE-19 cells treated±TGFβ, pramipexole (D2 agonist), and loxapine (D2 antagonist). […] In experiments combining pramipexole and loxapine along with TGFβ negates the activity of the molecules alone, confirming their activity is being driven by their interaction with the D2 receptor (FIG. 2B).
The effect of solnitropine, solupine, and loxapine on the expression of profibrotic genes COL1A1 and FN1 were evaluated as described in Example 1 (FIGS. 7A and 7B). In brief, ARPE-19 cells were treated±TGFβ in the presence of either loxapine, solnitropine, or solupine. Gene expression was measured by qPCR on RNA isolated from the treated cells 24 h after treatment.

[3] = system: Human conjunctival fibroblasts; experiment: Fibronectin deposition by conjunctival fibroblasts; assay type: cell-based; conditions: conditions of FIGS. 4-6, indicated concentrations of solupine
Procedure: Human conjunctival fibroblasts were cultured under the same conditions described in FIGS. 4-6 and fibronectin deposition was measured after treating with the indicated concentrations of solupine. N=3.

ARPE-19 cells [4] = experiment: PDGF-CC stimulated proliferation; assay type: cell-based, human; conditions: ARPE-19, 10 ng/mL PDGF-CC; compared with methotrexate
Procedure: Effect of methotrexate, solupine, sertindole, penfluridol, pimozide, and fluspirilene, on FGF-β stimulated proliferation was determined. Methods: ARPE-19 cells were seeded into 96-well plates (1,000 cells/well) and incubated for 6 h at 37° C. After, media was removed and exchanged for media containing 0% fetal bovine serum+/−10 ng/mL FGF-β, and the indicated concentration of compound. Compound concentrations were selected based on the potencies observed in FIGS. 4A-6B, and 9A-9C. After the indicated number of hours, cells were fixed in 4% formalin, and DAPI stained. Cells were then imaged using an automated microscope (Biotek Cytation5) and the number of DAPI nuclei were quantified using onboard software (Gen5). Raw cells/field of view are plotted. N=3. […] FGF-β levels are elevated in patients with PVR.
Effect of methotrexate and solupine on PDGF-CC stimulated proliferation was determined. Methods: experiments were carried out as described in Example 6, except 10 ng/mL PDGF-CC was used to stimulate proliferation. […] PDGF-CC levels are elevated in patients with PVR.

ARPE-19 cells [5] = experiment: Fibronectin deposition in ARPE-19 cells stimulated with a cocktail of profibrotic ligands; assay type: cell-based, human; conditions: TGF-β1, TGF-β2, TNF-α, FGF-β, PDGF-CC all at 10 ng/mL, 10 μM solupine
Procedure: ARPE-19 cells were cultured as described in FIGS. 4-6 and fibronectin was measured after stimulating the cells with a combination of profibrotic soluble factors including: T1=TGF-β1, T2=TGF-β2, Tα=TNF-α, Fβ=FGF-β, PC=PDGF-CC, (all at 10 ng/mL). +/−10 μM solupine. N=3. Results: solupine maintains its efficacy at blocking RPE cell fibronectin deposition when profibrotic factors are combined in a cocktail.

ARPE-19 cells [6] = experiment: Solupine functional stability (stored saline stock vs fresh, FGF-β proliferation readout); assay type: cell-based, human; conditions: dissolved in saline, opaque sealed container, 4° C.; potency compared with fresh stock in FGF-β proliferation
Procedure: A powder stock of solupine was dissolved in saline and stored in an opaque, sealed container at 4° C. for 90 days. The potency and efficacy of this stored stock was then compared to freshly solubilized stock of solupine dissolved in saline. ARPE-19 cells were cultured for 4 days with FGF-β and the indicated concentration of fresh or 90-day-old solupine stock. Cells were then assayed for proliferation as described herein for FIGS. 10 and 11. N=3. Results: solupine stock is functionally stable for at least 90 days under these conditions.

mouse eye = experiment: Toxicology scoring of mouse eye injected with solupine; assay type: in vivo; conditions: mice, 14 days
Procedure: Mice were injected with 1 μL of PBS (FIG. 17A), 1 μL PBS containing 10 μg/0.05 mL solupine (FIG. 17B), or 1 μL PBS containing 30 μg/0.05 mL solupine (FIG. 17C). The eyes were then analyzed by a pathologist and scored for the indicated observations of ocular toxicities. over the course of 14 days. Work was performed under contract with Labcorp. N=3-6 mice/group.

[7] = fibronectin deposition, read-out: IC50
[8] = Homo sapiens, fibronectin deposition, read-out: IC50
[9] = Homo sapiens, read-out: IC50 values (fibronectin deposition)

Row | SMILES | IC50 (ARPE-19 cells [1]; [8]) [µM] | further results
1 | CN1CCN(C2=Nc3cc(O)ccc3Oc3ccc(Cl)cc32)CC1 [8-OH-loxapine] |  | IC50 (ARPE-19 cells [1]; [7]): > 10 µM
2 | Clc1ccc2c(c1)N=C(N1CCNCC1)c1ccccc1N2 [N-desmethyl clozapine] |  | IC50 (ARPE-19 cells [1]; [7]): ≤ 5 µM
3 | Cc1cc2c(s1)Nc1ccccc1N=C2N1CCNCC1 [N-desmethyl olanzapine] |  | IC50 (ARPE-19 cells [1]; [7]): ≤ 5 µM
4 | CCN1CCCC1CNC(=O)c1cc(S(=O)(=O)CC)c(N)cc1OC (stereo not shown) [amisulpride] | > 10 | 
5 | O=C1CCc2ccc(OCCCCN3CCN(c4cccc(Cl)c4Cl)CC3)cc2N1 [aripiprazole] |  | fibronectin deposition (ARPE-19 cells [1]; ARPE-19, TGFβ, performed identically to FIGS. 4-6, N=3): blocks fibronectin deposition
6 | CCc1cc(Cl)c(OC)c(C(=O)NC[C@@H]2CCCN2CC)c1O [eticlopride] | > 10 | 
7 | O=C1[C@@H]2[C@H]3CC[C@H](C3)[C@@H]2C(=O)N1C[C@@H]1CCCC[C@H]1CN1CCN(c2nsc3ccccc23)CC1 [lurasidone] | ≤ 5 | 
8 | CN(Cc1cnc2nc(N)nc(N)c2n1)c1ccc(C(=O)N[C@@H](CCC(=O)O)C(=O)O)cc1 [methotrexate] | > 10 | 
9 | CCN1CCC[C@H]1CNC(=O)c1c(O)c(Cl)cc(Cl)c1OC [raclopride] | > 10 | 
10 | CCN1CCC[C@H]1CNC(=O)c1c(OC)ccc(Br)c1OC [remoxipride] | > 10 | 
11 | c1ccc2c(c1)Oc1cccnc1N=C2N1CCNCC1 [solnitropine] | ≤ 5 | IC50 (ARPE-19 cells [1]; [9]): ≤ 5 µM; expression of COL1A1 [2]: significantly reduced; expression of FN1 [2]: significantly reduced
12 | c1ccc2c(c1)Oc1sccc1N=C2N1CCNCC1 [solupine] | ≤ 5 | IC50 (ARPE-19 cells [1]; [9]): ≤ 5 µM; fibronectin deposition by conjunctival fibroblasts [3]: does not block fibronectin deposition; potency at blocking PDGF stimulated proliferation (ARPE-19 cells [4]): more potent than methotrexate; expression of COL1A1 [2]: significantly reduced; expression of FN1 [2]: significantly reduced; fibronectin deposition, cocktail of profibrotic ligands (ARPE-19 cells [5]): blocks fibronectin deposition; functional stability of stock (ARPE-19 cells [6]): at least 90 days; ocular toxicity scoring (mouse eye; eye injection 1 μL PBS containing 10 μg/0.05 mL solupine): No observable toxicity; ocular toxicity scoring (mouse eye; eye injection 1 μL PBS containing 30 μg/0.05 mL solupine): No observable toxicity
13 | CCN1CCCC1CNC(=O)c1cc(S(N)(=O)=O)ccc1OC (stereo not shown) [sulpiride] | > 10 | 
14 | CN1CCN(CCCN2c3ccccc3Sc3ccc(C(F)(F)F)cc32)CC1 [trifluoperizine] |  | IC50 (ARPE-19 cells [1]; [7]): > 10 µM

The next lines start with results.

Row | IC50 (ARPE-19 cells [1]; [8]) [µM] | SMILES | further results
15 | ≤ 5 | O=C(CCCN1CCC(n2c(O)nc3ccccc32)CC1)c1ccc(F)cc1 [benperidol] | 
16 | 5 to 10 | CCN1CCN(c2cc(-c3ccc(F)cc3)c3c(n2)CCCCCC3)CC1 [blonanserin] | 
17 | 5 to 10 | O=C(CCCN1CC=C(n2c(=O)[nH]c3ccccc32)CC1)c1ccc(F)cc1 [droperidol] | 
18 | ≤ 5 | O=C1NCN(c2ccccc2)C12CCN(CCCC(c1ccc(F)cc1)c1ccc(F)cc1)CC2 [fluspirilene] | 
19 | ≤ 5 | CN1CCN(C2=Nc3ccccc3Oc3ccc(Cl)cc32)CC1 [loxapine] | 
20 | ≤ 5 | OC1(c2ccc(Cl)c(C(F)(F)F)c2)CCN(CCCC(c2ccc(F)cc2)c2ccc(F)cc2)CC1 [penfluridol] | 
21 | > 10 | OCCN1CCN(CCCN2c3ccccc3Sc3ccc(Cl)cc32)CC1 [perphenazine] | 
22 | ≤ 5 | O=c1[nH]c2ccccc2n1C1CCN(CCCC(c2ccc(F)cc2)c2ccc(F)cc2)CC1 [pimozide] | 
23 | ≤ 5 | CN1CCC(=C2c3ccccc3CCc3sccc32)CC1 [pizotifen] | 
24 | ≤ 5 | O=C1NCCN1CCN1CCC(c2cn(-c3ccc(F)cc3)c3ccc(Cl)cc23)CC1 [sertindole] | 
25 | ≤ 5 | O=C(CCCN1CCC(n2c(=S)[nH]c3ccccc32)CC1)c1ccc(F)cc1 [timiperone] | 
